Test results taken from patent publication US9447051B2, “Diaminopyrimidines and uses thereof” (AbbVie inc., priority 2012, dated 2016).

test system: RSV (Group A, Long Strain); assay: Antiviral (RSV) assay: cytopathetic effect (CPE) protection assay in HEp-2 cells, MTT readout; assay type: cell-based, human respiratory syncytial virus (RSV); conditions: Table 1, 0.2 MOI RSV, 4 days incubation, protection from CPE
Protocol: HEp-2 cells and RSV (Group A, Long Strain) were obtained from the American Type Culture Collection (Manassas, Va.). A cytopathetic effect (CPE) protection assay was performed to determine the ability of a compound to protect the cells from viral infection and thus the CPE induced by viral infection. 96-well plates were first seeded with 3×10^3 HEp-2 cells per well in Dulbecco's modified Eagle's medium (DMEM) containing 10% fetal bovine serum (FBS). One day after the cells were seeded, they were preincubated with serial dilutions of compounds prepared in 100 μL assay medium (DMEM mixed with F12 medium at a 1:1 ratio, supplemented with 2% FBS and 1 mM sodium pyruvate) for 1 hour at 37° C. 100 μL of assay medium containing 0.2 multiplicity of infection (MOI) of RSV was then added to each well of cells. In addition to wells containing infected cells incubated with compounds, each plate also contained replicates of two kinds of controls: (1) Virus control contained cells infected with 0.2 MOI of RSV in assay medium, (2) Uninfected cell control contained cells incubated with assay medium only. After 4 days of incubation at 37° C., the viability of cells was assessed using MTT (Thiazolyl blue tetrazolium bromide, Sigma). A stock solution of MTT, at a concentration of 4 mg/mL in phosphate-buffered saline, was added to all wells at 25 μL per well. Plates were further incubated for 4 hours, and each well was then treated with 50 μL of a solution containing 20% sodium dodecyl sulfate (SDS) and 0.02 N HCl. After an overnight incubation, the plates were measured on a BioTek® microtiter plate reader at wavelengths of 570 nm and 650 nm. The MTT detection is based on the fact that viable (uninfected) cells can reduce the tetrazolium salts into colored formazan products, which can then be quantitated by spectrometry. […] Compounds were tested to determine both their antiviral and toxicity to determine their therapeutic window. Determination of the EC50 and TD50 of these active compounds were repeated one additional time to confirm the window.

Compound | EC50 [nM]
Cc1nc(NCc2ccccn2)nc(NC2CCC(C)(O)CC2)c1C (stereo not drawn) [Example 37, cis-4-({5,6-dimethyl-2-[(pyridin-2-ylmethyl)amino]pyrimidin-4-yl}amino)-1-methylcyclohexanol] | 360
Cc1nc(NCc2ccccn2)nc(NC2CCC(C)(O)CC2)c1C (stereo not drawn) [Example 38, trans-4-({5,6-dimethyl-2-[(pyridin-2-ylmethyl)amino]pyrimidin-4-yl}amino)-1-methylcyclohexanol] | 2400

same assay, conditions: human respiratory syncytial virus, HEp-2, 96 h, Table 1, 0.2 MOI RSV, 4 days incubation, protection from CPE

Compound | EC50 [nM]
Cc1nc(NCc2ccccn2)nc(N[C@H]2CCCC[C@H]2CO)c1C (racemic) [Example 43, rac-[(1R,2S)-2-({5,6-dimethyl-2-[(pyridin-2-ylmethyl)amino]pyrimidin-4-yl}amino)cyclohexyl]methanol] | 190
Cc1nc(NCc2ccccc2)nc(NC2CCCCC2)c1C [Example 5, N^2-benzyl-N^4-cyclohexyl-5,6-dimethylpyrimidine-2,4-diamine] | 240
Cc1nc(NCc2cccnc2)nc(NC2CCCCC2)c1C [Example 6, N^4-cyclohexyl-5,6-dimethyl-N^2-(pyridin-3-ylmethyl)pyrimidine-2,4-diamine] | 240
Cc1ccc(O)c(CNc2nc(C)c(C)c(NC3CCCCC3)n2)n1 [Example 7, 2-({[4-(cyclohexylamino)-5,6-dimethylpyrimidin-2-yl]amino}methyl)-6-methylpyridin-3-ol] | > 12000
COc1ccc(CNc2nc(C)c(C)c(NC3CCCCC3)n2)cc1 [Example 8, N^4-cyclohexyl-N^2-(4-methoxybenzyl)-5,6-dimethylpyrimidine-2,4-diamine] | > 3700
Cc1nc(NCc2ccc(F)cc2)nc(NC2CCCCC2)c1C [Example 9, N^4-cyclohexyl-N^2-(4-fluorobenzyl)-5,6-dimethylpyrimidine-2,4-diamine] | > 3000
Cc1nc(NCc2ccc(OC(F)(F)F)cc2)nc(NC2CCCCC2)c1C [Example 10, N^4-cyclohexyl-5,6-dimethyl-N^2-[4-(trifluoromethoxy)benzyl]pyrimidine-2,4-diamine] | > 1500
Cc1nc(NCc2ccc(C(C)C)cc2)nc(NC2CCCCC2)c1C [Example 11, N^4-cyclohexyl-N^2-(4-isopropylbenzyl)-5,6-dimethylpyrimidine-2,4-diamine] | > 2000
Cc1nc(NCc2ccc(C(F)(F)F)cc2)nc(NC2CCCCC2)c1C [Example 12, N^4-cyclohexyl-5,6-dimethyl-N^2-[4-(trifluoromethyl)benzyl]pyrimidine-2,4-diamine] | > 950
Cc1nc(NCc2cccc(F)c2)nc(NC2CCCCC2)c1C [Example 13, N^4-cyclohexyl-N^2-(3-fluorobenzyl)-5,6-dimethylpyrimidine-2,4-diamine] | > 1000
Cc1nc(NCc2ccn[nH]2)nc(NC2CCCCC2)c1C [Example 14, N^4-cyclohexyl-5,6-dimethyl-N^2-(1H-pyrazol-5-ylmethyl)pyrimidine-2,4-diamine] | 840
Cc1nc(N[C@H](C)c2ccccc2)nc(NC2CCCCC2)c1C [Example 15, N^4-cyclohexyl-5,6-dimethyl-N^2-[(1R)-1-phenylethyl]pyrimidine-2,4-diamine] | > 1900
Cc1nc(N[C@@H](C)c2ccccc2)nc(NC2CCCCC2)c1C [Example 16, N^4-cyclohexyl-5,6-dimethyl-N^2-[(1S)-1-phenylethyl]pyrimidine-2,4-diamine] | > 3700
Cc1ccnc(CNc2nc(C)c(C)c(NC3CCCCC3)n2)c1 [Example 17, N^4-cyclohexyl-5,6-dimethyl-N^2-[(4-methylpyridin-2-yl)methyl]pyrimidine-2,4-diamine] | 34
COc1ccnc(CNc2nc(C)c(C)c(NC3CCCCC3)n2)c1 [Example 18, N^4-cyclohexyl-N^2-[(4-methoxypyridin-2-yl)methyl]-5,6-dimethylpyrimidine-2,4-diamine] | 310
Cc1cccc(CNc2nc(C)c(C)c(NC3CCCCC3)n2)n1 [Example 19, N^4-cyclohexyl-5,6-dimethyl-N^2-[(6-methylpyridin-2-yl)methyl]pyrimidine-2,4-diamine] | 590
Cc1nc(NCc2ccc(C(F)(F)F)cn2)nc(NC2CCCCC2)c1C [Example 20, N^4-cyclohexyl-5,6-dimethyl-N^2-{[5-(trifluoromethyl)pyridin-2-yl]methyl}pyrimidine-2,4-diamine] | > 8700
Cc1nc(NCc2cc(C(C)(C)C)ccn2)nc(NC2CCCCC2)c1C [Example 21, N^2-[(4-tert-butylpyridin-2-yl)methyl]-N^4-cyclohexyl-5,6-dimethylpyrimidine-2,4-diamine] | > 6100

Compound | EC50 [nM]
Cc1nc(NCc2cccs2)nc(NC2CCCCC2)c1C [Example 22, N^4-cyclohexyl-5,6-dimethyl-N^2-(2-thienylmethyl)pyrimidine-2,4-diamine] | 69
Cc1nc(NCc2c(C)noc2C)nc(NC2CCCCC2)c1C [Example 23, N^4-cyclohexyl-N^2-[(3,5-dimethyl-1,2-oxazol-4-yl)methyl]-5,6-dimethylpyrimidine-2,4-diamine] | > 10000
Cc1nc(NCc2cn(C)cn2)nc(NC2CCCCC2)c1C [Example 24, N^4-cyclohexyl-5,6-dimethyl-N^2-[(1-methyl-1H-imidazol-4-yl)methyl]pyrimidine-2,4-diamine] | 45
COc1cccc(CNc2nc(C)c(C)c(NC3CCCCC3)n2)c1 [Example 25, N^4-cyclohexyl-N^2-(3-methoxybenzyl)-5,6-dimethylpyrimidine-2,4-diamine] | > 3400
Cc1cccnc1CNc1nc(C)c(C)c(NC2CCCCC2)n1 [Example 26, N^4-cyclohexyl-5,6-dimethyl-N^2-[(3-methylpyridin-2-yl)methyl]pyrimidine-2,4-diamine] | > 5800
Cc1nc(NCc2cc(Cl)ccn2)nc(NC2CCCCC2)c1C [Example 27, N^2-[(4-chloropyridin-2-yl)methyl]-N^4-cyclohexyl-5,6-dimethylpyrimidine-2,4-diamine] | 42
Cc1ccnc(CNc2nc(C)c(C)c(NC3CCC(F)(F)CC3)n2)c1 [Example 28, N^4-(4,4-difluorocyclohexyl)-5,6-dimethyl-N^2-[(4-methylpyridin-2-yl)methyl]pyrimidine-2,4-diamine] | 61
Cc1nc(NCc2ccccn2)nc(NC2CCCC2)c1C [Example 29, N^4-cyclopentyl-5,6-dimethyl-N^2-(pyridin-2-ylmethyl)pyrimidine-2,4-diamine] | 920
Cc1nc(NCc2ccccn2)nc(NC2CCOCC2)c1C [Example 30, 5,6-dimethyl-N^2-(pyridin-2-ylmethyl)-N^4-(tetrahydro-2H-pyran-4-yl)pyrimidine-2,4-diamine] | 1100
Cc1nc(NCc2ccccn2)nc(NC2CCC(C(F)(F)F)CC2)c1C (centres unmarked) [Example 31, 5,6-dimethyl-N^2-(pyridin-2-ylmethyl)-N^4-[4-(trifluoromethyl)cyclohexyl]pyrimidine-2,4-diamine] | > 9600
Cc1nc(NCc2ccccn2)nc(NC2CCC(F)(F)CC2)c1C [Example 32, N^4-(4,4-difluorocyclohexyl)-5,6-dimethyl-N^2-(pyridin-2-ylmethyl)pyrimidine-2,4-diamine] | 220
Cc1nc(NCc2ccccn2)nc(NC2CCc3ccccc32)c1C (centres unmarked) [Example 33, N^4-(2,3-dihydro-1H-inden-1-yl)-5,6-dimethyl-N^2-(pyridin-2-ylmethyl)pyrimidine-2,4-diamine] | 180
Cc1nc(NCc2ccccn2)nc(NC2CCC(O)C2)c1C (centres unmarked) [Example 34, 3-({5,6-dimethyl-2-[(pyridin-2-ylmethyl)amino]pyrimidin-4-yl}amino)cyclopentanol] | 4300
Cc1nc(NCc2ccccn2)nc(NC2CCCc3ccccc32)c1C (centres unmarked) [Example 35, 5,6-dimethyl-N^2-(pyridin-2-ylmethyl)-N^4-(1,2,3,4-tetrahydronaphthalen-1-yl)pyrimidine-2,4-diamine] | 120
Cc1nc(NCc2ccccn2)nc(NC2CCOc3ccccc32)c1C (centres unmarked) [Example 36, N^4-(3,4-dihydro-2H-chromen-4-yl)-5,6-dimethyl-N^2-(pyridin-2-ylmethyl)pyrimidine-2,4-diamine] | 530
Cc1nc(NCc2ccccn2)nc(NC2CC3CCC2C3)c1C (centres unmarked) [Example 39, N^4-(bicyclo[2.2.1]hept-2-yl)-5,6-dimethyl-N^2-(pyridin-2-ylmethyl)pyrimidine-2,4-diamine] | 1250
Cc1nc(NCc2ccccn2)nc(NC2CCCCC2C)c1C (centres unmarked) [Example 40, 5,6-dimethyl-N^4-(2-methylcyclohexyl)-N^2-(pyridin-2-ylmethyl)pyrimidine-2,4-diamine] | 65
Cc1nc(NCc2ccccn2)nc(NC2CCCC(C)C2C)c1C (centres unmarked) [Example 41, N^4-(2,3-dimethylcyclohexyl)-5,6-dimethyl-N^2-(pyridin-2-ylmethyl)pyrimidine-2,4-diamine] | 40
